Test results taken from PubChem BioAssay (NCI).
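Dose response: 5 concentrations. Exposure: 48 h. Format: 96-well plates. Endpoint: linear interpolation; highest concentration if not reached. The concentration for full growth arrest is given as TGI.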

Experiments:
Assay in all cases: NCI anticancer screen, dose series, 48 h
[1] = test system: 786-0 renal
[2] = test system: A498 renal
[3] = test system: ACHN renal
[4] = test system: BT-549 breast
[5] = test system: CAKI-1 renal
[6] = test system: COLO 205 colon
[7] = test system: EKVX NSCLC
[8] = test system: HCT-116 colon
[9] = test system: HCT-15 colon
[10] = test system: HS 578T breast
[11] = test system: M14 melanoma
[12] = test system: MALME-3M melanoma
[13] = test system: MDA-MB-435
[14] = test system: MOLT-4 leukemia
[15] = test system: NCI-H226 lung
[16] = test system: NCI-H522 lung
[17] = test system: OVCAR-4 ovarian
[18] = test system: RPMI-8226 leukemia
[19] = test system: U251 CNS
[20] = test system: UACC-62 melanoma

Row | Structure (SMILES) | TGI [1] [µM] | TGI [2] [µM] | TGI [3] [µM] | TGI [4] [µM] | TGI [5] [µM] | TGI [6] [µM] | TGI [7] [µM] | TGI [8] [µM] | TGI [9] [µM] | TGI [10] [µM] | TGI [11] [µM] | TGI [12] [µM] | TGI [13] [µM] | TGI [14] [µM] | TGI [15] [µM] | TGI [16] [µM] | TGI [17] [µM] | TGI [18] [µM] | TGI [19] [µM] | TGI [20] [µM]
1 | CCOC(=O)C1C(=O)CC(C)(O)C(C(=O)OCC)C1c1ccc(OC)cc1 (stereo not given) | > 100 | > 100 | > 100 | > 100 | > 100 | > 100 | > 100 | > 100 | > 100 | > 100 | > 100 | > 100 | > 100 | > 100 | > 100 | > 100 | > 100 | > 100 | > 100 | > 100
2 | c1ccc(-c2cc(-c3cc(-c4ccccc4)no3)on2)cc1 | > 100 | > 100 | > 100 | > 100 | > 100 | > 100 | > 100 | > 100 | > 100 | > 100 | > 100 | > 100 | > 100 | 81.3 | > 100 | > 100 | 85.9 | > 100 | > 100 | > 100
3 | Cc1ccc(OCCn2cc(Nc3ccccc3)c(=O)[nH]c2=O)cc1 | > 100 | > 100 | > 100 | > 100 | > 100 | > 100 | > 100 | > 100 | > 100 | > 100 | > 100 | > 100 | > 100 | > 100 | > 100 | > 100 | > 100 | > 100 | > 100 | > 100
4 | COc1ccc2nc(-c3ccc(O)cc3)cn2c1 | > 100 | > 100 | > 100 | > 100 | > 100 | > 100 | > 100 | > 100 | > 100 | > 100 | > 100 | > 100 | > 100 | > 100 | > 100 | > 100 | > 100 | > 100 | > 100 | 86.2
5 | CCC(CCCCC1CC[C@H]2CC(=O)C[C@@H]12)OC (stereo not given in full) | > 100 | > 100 | > 100 | > 100 | > 100 | > 100 | > 100 | > 100 | > 100 | > 100 | > 100 | > 100 | > 100 | > 100 | > 100 | > 100 | > 100 | > 100 | > 100 | > 100
6 | Cc1ccc2cccc(OC(=O)c3cc4c(cc3Cl)Sc3nccn3S4(=O)=O)c2n1 | 43.6 | 45 | 38.7 | > 78.1 | > 79.9 | 29.4 | 48 | 18.9 | 29 | > 100 | 25.7 | 47.4 | 26.1 | 19.8 | > 75.7 | 38 | 25.1 | 7.03 | 16.6 | 32.6
